Consider 2 molecules from patent US20230190608A1, “COMPOSITIONS AND METHODS FOR IMPROVING THE APPEARANCE OF SKIN” (L'Oreal, priority 2021, published 2023).

The format of data set [1] is in vitro ADME, human. As for the experimental part: Human skin samples were obtained from abdominal surgery. Excess subcutaneous fat was removed, if necessary. Skin samples were excised and cut into pieces of around 2 cm×2 cm. Thickness was measured and transepidermal water loss (TEWL) was measured. The human skin was included in the study if the TEWL was between 0.5 and 13 g/m^2/h for abdominal skin. The 2 cm^2 skin samples were kept in a static cell in a diffusion chamber in a Franz cell horizontal cell clamp system (Crown Glass Company, Inc.) and maintained at a constant temperature of 32° C.±1° C. The static cells consist of a donor chamber and a receptor chamber with a 7 mL receptor fluid compartment separated by the skin.
The cells were placed on a magnetic stirrer which was integrated with a fixed temperature water bath maintained in order to have 32° C.±1° C. at the skin surface. The receptor compartment of each cell was filled with the receptor fluid (PBS) and was continuously stirred. The skin samples were placed on the receptor compartment. The donor compartment was then placed onto the skin samples. […]
A composition containing 2 wt % acetyl trifluoromethylphenyl valylglycine was applied to the skin sample at a rate of 10 mg/cell using a positive displacement pipette and the exact amount applied was determined by weight then recorded (Sartorius Entris II Essential Analytical balance, Thermo-Fisher). […]
The skin was then stripped with consistent weight and time of application. […] The strips samples were stored with solvent (methanol) at −20° C. for a maximum of 5 days before being analyzed. […] The RS vials were stored with solvent (methanol) at −20° C. for a maximum of 7 days before being analyzed. Dermis and epidermis samples were stored with solvent at −20° C. for a maximum of 7 days before being analyzed. The receptor fluid was taken 16 hours after the application and the samples were analyzed.
Receptor fluid samples were stored at −20° C. for a maximum of 6 days before being analyzed. […] Samples were stored at −20° C. for a maximum of 5 days before being analyzed.
The final extract was analyzed by LC-MS/MS. […]

For data set [2], the system named is filaggrin (FLG) expression. Put plainly: Ex vivo skin model, filaggrin immunohistochemical staining. In kind it is cell-based, human. The conditions noted are these: 0.1% acetyl trifluoromethylphenyl valylglycine added to 0.003% retinol, 7-day culture. The procedure: The effect of acetyl trifluoromethylphenyl valylglycine and/or retinoids on skin turnover/desquamation, filaggrin expression, desmocollin-1 expression was evaluated in an ex vivo skin model. In this study, the effects of acetyl trifluoromethylphenyl valylglycine (0.1%), retinol (0.003%) and acetyl trifluoromethylphenyl valylglycine+retinol on the skin were evaluated by H&E (assessing for overall tissue health), filaggrin (assessing the level of barrier renewal) and desmocollin-1 (assessing the tight junction between the keratinocytes).
Fresh post-abdominoplasty normal human skin samples (3 lots, age 36-59 years old, Hispanic/Caucasian/African American, female) were acquired from BioIVT Inc. (Westbury, N.Y.). Tissue was defatted and cleaned of blood residue. Explant samples were then created using a 12 mm biopsy punch. Samples were cleaned with sterile PBS. Skin biopsies not receiving treatment served as controls. Skin explants were maintained at air-liquid interface at 37° C. and 5% CO2 in four different treatment groups (n=3 per media type): • 1. […]
Skin explants were processed for haematoxylin and eosin, and immunohistochemical staining (Reveal Biosciences, CA). […] The primary staining was followed by rabbit anti-mouse IgG or anti-rabbit Poly-HRP-IgG respectively and were detected using the Bond Polymer Refine Detection kit (DS9800, Leica Biosystems, UK). […]

Data set [3] concerns normal human skin samples (explants). Put plainly: Ex vivo skin model, H&E staining (overall tissue health). It counts as cell-based. To be noted: 0.003% retinol in media, 7-day culture.
For data set [4], the system named is desmocollin-1 (DSC1) expression. The data set is described as follows: Ex vivo skin model, desmocollin-1 immunohistochemical staining. In kind it is cell-based, human. To be noted: 0.003% retinol in media, 7-day culture. As for the experimental part: The effect of acetyl trifluoromethylphenyl valylglycine and/or retinoids on skin turnover/desquamation, filaggrin expression, desmocollin-1 expression was evaluated in an ex vivo skin model. In this study, the effects of acetyl trifluoromethylphenyl valylglycine (0.1%), retinol (0.003%) and acetyl trifluoromethylphenyl valylglycine+retinol on the skin were evaluated by H&E (assessing for overall tissue health), filaggrin (assessing the level of barrier renewal) and desmocollin-1 (assessing the tight junction between the keratinocytes). Fresh post-abdominoplasty normal human skin samples (3 lots, age 36-59 years old, Hispanic/Caucasian/African American, female) were acquired from BioIVT Inc. (Westbury, N.Y.). Tissue was defatted and cleaned of blood residue. Explant samples were then created using a 12 mm biopsy punch. Samples were cleaned with sterile PBS. Skin biopsies not receiving treatment served as controls. Skin explants were maintained at air-liquid interface at 37° C. and 5% CO2 in four different treatment groups (n=3 per media type): • 1. […] The primary staining was followed by rabbit anti-mouse IgG or anti-rabbit Poly-HRP-IgG respectively and were detected using the Bond Polymer Refine Detection kit (DS9800, Leica Biosystems, UK). […]

As for `CC(=O)N(c1cccc(C(F)(F)F)c1)C(C(=O)NCC(=O)O)C(C)C` (stereo not drawn) [acetyl trifluoromethylphenyl valylglycine], in data set [1], the “amount penetrated through the stratum corneum” value was “about 0.08 wt %”; the “amount penetrating past the stratum corneum barrier into epidermis, dermis and receptor fluid” value is recorded as “about 0.8%”; the dermal dose result was “at least 0.08 wt %”. Further, the expression of filaggrin entry in data set [2] was “increases the expression”.
For `CC1=C(/C=C/C(C)=C/C=C/C(C)=C/CO)C(C)(C)CCC1` [retinol], in data set [3], the “change in H&E” value was “some mild level of skin irritation”. Moreover, the “expression of desmocollin-1” value in data set [4] was “downward expression”.
